Reference: article PMC8268581, “Identification of 3,4-Dihydro-2H,6H-pyrimido[1,2-c][1,3]benzothiazin-6-imine Derivatives as Novel Selective Inhibitors of Plasmodium falciparum Dihydroorotate Dehydrogenase” (International Journal of Molecular Sciences, 2021)

Key:
[1] = test system: P. falciparum 3D7 strain expressing the cytosolic yeast DHODH (3D7-yDHODH); assay: Confirmation assay against transgenic parasite 3D7-yDHODH; format: cell-based, Plasmodium falciparum; conditions: for activity at 10 µM: 72 h, relative parasite growth at 10 µM compound, read-out: Growth at 10 µM (%) Pf3D7-yDHODH
Procedure: (§1) Synchronized ring-stage parasites at 0.3% parasitemia and 2% hematocrit were cultured in a 384-well plate at 25 µL with test compounds at a final concentration in the range of 0.0003 to 10 µM with a fixed DMSO concentration of 0.4% (v/v). Parasite growth was monitored by the diaphorase-coupled P. falciparum lactate dehydrogenase (PfLDH) assay, as previously described. After 72 h, 70 µL of the assay solution (150 mM lithium L-lactate (Wako), 0.05 mg/mL 3-acetylpyridine adenine dinucleotide (Oriental Yeast Co., Ltd., Tokyo, Japan), 0.2 mg/mL nitro blue tetrazolium (Wako), 1 unit/mL diaphorase, and 100 mM Tris-HCl pH 8.0) were mixed with the parasite culture and incubated at room temperature for 40 min, and the generated nitro blue formazan was measured at 650 nm using a SpectraMax®® Paradigm®® Multi-Mode Microplate Reader. […] The EC50 was calculated using GraphPad Prism 8.0 software from the mean of quadruplets values.
The P. falciparum 3D7 strain expressing the cytosolic yeast DHODH (3D7-yDHODH) was prepared as follows. pHHyDHODH-GFP plasmid (Kerafast, Boston, MA, USA) was transfected to the P. falciparum 3D7 strain following the established transfection method. Briefly, 50 µg of plasmid dissolved in cytomix solution (120 mM KCl, 0.15 mM CaCl2, 10 mM K2HPO4/KH2PO4 pH 7.6, 25 mM HEPES-KOH pH 7.6, 2 mM ethylene glycol-bis(β-aminoethyl ether)-N,N,N′,N′-tetraacetic acid (EGTA, Dojindo), and 5 mM magnesium chloride (Wako)) was transfected into the red blood cells by the Gene Pulser Xcell (Bio-Rad). Percoll–sorbitol synchronized parasites were mixed with red blood cells containing plasmid and maintained under 5 nM WR99210 for 2 weeks. The growth of resistant parasites against DSM265 and atovaquone, as PfDHODH and complex III inhibitors respectively, was confirmed by PfLDH/diaphorase assay. A total of 10 µM PfDHODH inhibitors were tested against wild-type 3D7 and 3D7-yDHODH following the method described above in triplicate. The significance of difference between the inhibition of the two parasite strains was evaluated by Student’s t-test (Figure S4).

[2] = target: mammalian mitochondrial complexes I–III (Bos taurus, UniProt P00157+P03887+P17694+P42026); assay: NADH-cytochrome c reductase (complexes I–III) activity assay; format: biochemical; conditions: bovine heart mitochondria, range tested 0.0007 to 22.7 µM; read-out: IC50 Mammalian Mitochondrial CI–III
Procedure: Bovine heart mitochondria were prepared as previously described. The NADH-cytochrome c reductase (complexes I–III) and succinate-cytochrome c reductase (complexes II–III) activities were assayed in 384-well plates following an established protocol with small modifications. Complex I–III activity was assayed in a reaction mix containing 50 mM phosphate buffer pH 7.4, 2 mM KCN, 200 µM cytochrome c (cytochrome c from horse heart, Nacalai tesque), and 15 µg/mL mitochondria. Plates containing 1 µL serial dilutions of PfDHODH inhibitors were prepared and mixed with 38 µL of the reaction mix, as described above. The reaction was started by the addition of 5 µL of 2.6 mM NADH, and the assay was performed as described for PfDHODH, but at 550 nm and with 15 min of incubation. Complex II–III activity was assayed similarly to complex I–III activity but with 100 µM cytochrome c and 25 µg/mL mitochondria, and the reaction was started by 10 mM succinate. For both assays, DMSO and 5 µM ascochlorin were used as negative and positive controls, respectively. Assays were performed in triplicate.

[3] = Cytotoxicity assay, HDF (Cell Counting Kit-8); format: cell-based; conditions: human dermal fibroblast (HDF) cells, normal human dermal fibroblasts
Procedure: (§2) Human dermal fibroblast cells (HDF, Zenbio, Inc., Durham, NC, USA) were cultured in Dulbecco’s Modified Eagle Medium/Nutrient Mixture F-12 medium (DMEM/F12, Gibco), human pancreatic carcinoma cells (PANC-1, DS Pharma Biomedical, Co., Ltd.) were cultured in DMEM (Gibco), and human colorectal adenocarcinoma cells (DLD-1, Taiho Pharmaceutical Company) were cultured in RPMI-1640 medium (FUJIFILM Wako Pure Chemicals). The culture mediums were supplemented with 10% (v/v) heat-inactivated fetal bovine serum (Gibco) and the cells were maintained at 37 °C under 5% CO2.
(§3) HDF, PANC-1, and DLD-1 were seeded at 2.5 × 10^4 cells/well on a 96-well plate and incubated at 37 °C under 5% CO2 overnight. The cells were then washed with PBS and the medium was replaced with 99 µL of fresh media. Then, 1 µL of the compounds or DMSO was added to the respective wells. As controls, wells containing 1% (v/v) DMSO in column 1 and wells containing only the culture medium in column 12 were used as the negative and positive controls, respectively. After 48 h of incubation, the cells were washed with PBS, and 99 µL of fresh media was replaced, followed by the addition of 10 µL of Cell Counting Kit-8 (Dojindo) to each well. After 3 h of incubation, the absorbance was measured at 450 nm using a SpectraMax®® Paradigm®® Multi-Mode microplate Reader. The calculation of cell viability in the test well was based on the absorbance of control wells according to the manufacturer’s protocol. The mean of quadruplet values was used to calculate the CC50 using GraphPad Prism 8.0 software.

[4] = Cytotoxicity assay, PANC-1 (Cell Counting Kit-8); format: cell-based; conditions: PANC-1 human pancreatic carcinoma cells
Procedure: as §2, §3

[5] = test system: P. falciparum 3D7; assay: In vitro antimalarial assay (PfLDH/diaphorase); format: cell-based; conditions: Plasmodium falciparum, growth inhibition, 72 h, 0.0003 to 10 µM, read-out: EC50 Pf3D7
Procedure: This assay was conducted using human red blood cells (RBC) following the guidelines of the ethics committee of Nagasaki University (permission no. 19). Human RBC was obtained from the Japanese Red Cross Society. The P. falciparum 3D7 strain was cultured in 2% hematocrit type O human RBC in RPMI-1640 medium (Gibco) supplemented with 23.8 mM sodium bicarbonate (Wako), 50 mg/L hypoxanthine (Wako), 25 mg/L gentamycin (Sigma), and 0.5% (w/v) AlbuMAX®® II (Gibco) under a 5% O2, 5% CO2, and 90% N2 atmosphere at 37 °C. Parasites were synchronized with 5% (w/v) D-sorbitol (Wako).
as §1

SMILES | activity at 10 µM [1] [%] | IC50 [2] [µM] | EC50 at 48 h [3] [µM] | EC50 at 48 h [4] [µM] | EC50 [5] [µM] | susceptibility of Pf3D7-yDHODH parasite (in words) ([1]; relative parasite growth at 10 µM, compared with wild-type 3D7)
O=[N+]([O-])c1ccc(-c2ccc3c(c2)SN2CCCN=C32)cc1 [Compound 39] | 1.48 ± 0.14 | > 22.7 | > 10 | > 10 | 1.14 ± 0.06 | 
COC(=O)c1cccc(-c2ccc3c(c2)SN2CCCN=C32)c1 [Compound 40] | -0.09 ± 0.08 | > 22.7 | 9.16 | > 10 | 1.72 ± 0.48 | 
COc1ccccc1-c1ccc2c(c1)SN1CCCN=C21 [Compound 42] | 0.04 ± 0.15 | > 22.7 | 9.77 | > 10 | 0.54 ± 0.22 | 
O=[N+]([O-])c1ccccc1-c1ccc2c(c1)SN1CCCN=C21 [Compound 43] | 31.1 ± 2.38 | > 22.7 | 9.44 | > 10 | 1.11 ± 0.08 | reduced susceptibility
